Some test systems named below: MALME-3M melanoma; NCI-H23 lung; SK-MEL-28 melanoma; RXF 393 renal; SK-OV-3 ovarian; HOP-62 NSCLC; COLO 205 colon; SNB-19 CNS; MDA-N.
Holding throughout (assay): NCI-60 cell line screen, 48 h

Our source for the TGI and GI50 values is PubChem BioAssay (NCI).

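A five-concentration, 48-hour dose response in 96-well plates underlies each endpoint, interpolated linearly between surrounding concentrations. GI50 marks 50% less growth. TGI marks complete inhibition of growth.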 Bounds are passed on as bounds.

For `CC1=C[P+](c2ccccc2)(c2ccccc2)c2ccccc2O1`, the TGI with MALME-3M melanoma was 61 µM; in the experiment on NCI-H23 lung, 24.1 µM; in the experiment on SK-MEL-28 melanoma, 62.5 µM; in the experiment on RXF 393 renal it was above 100 µM; in the experiment on SK-OV-3 ovarian, above 100 µM; with HOP-62 NSCLC it was 59 µM. For the same molecule, the results for the TGI with COLO 205 colon and in the experiment with SNB-19 CNS were 2.89 µM and above 100 µM, respectively.
Regarding `Cc1cc2ncn(CC(=O)O)c2cc1C`, the TGI in the experiment with MALME-3M melanoma, in the experiment with NCI-H23 lung, with SK-MEL-28 melanoma, in the experiment with RXF 393 renal, with SK-OV-3 ovarian and in the experiment with HOP-62 NSCLC was above 100 µM in each case. Also, the TGI in the experiment with COLO 205 colon and with SNB-19 CNS was above 100 µM each time.
Turning to `O=C(COc1cc(=O)oc2ccccc12)c1ccccc1`, the TGI in the experiment with MDA-N is above 100 µM; with MALME-3M melanoma, above 100 µM; in the experiment on NCI-H23 lung, 65.2 µM; with SK-MEL-28 melanoma, above 100 µM; with HOP-62 NSCLC it was above 100 µM; in the experiment with SNB-19 CNS, 48.9 µM.
Turning to `Cc1[nH]c(=O)nc(N/N=C/c2c3ccccc3c(Cl)c3ccccc23)c1C(=O)Nc1ccc(Cl)cc1`, the TGI in the experiment on MDA-N, with MALME-3M melanoma, in the experiment with NCI-H23 lung, in the experiment with SK-MEL-28 melanoma, in the experiment with HOP-62 NSCLC and in the experiment on SNB-19 CNS was above 100 µM in each case.
Consider `O=C(Nc1ccccc1C(=O)NCc1ccccc1)/C(=C/c1ccccc1O)NC(=O)c1ccccc1`, for which the TGI in the experiment on NCI-H23 lung, in the experiment on SK-MEL-28 melanoma, in the experiment with RXF 393 renal, in the experiment with SK-OV-3 ovarian, in the experiment with HOP-62 NSCLC and with COLO 205 colon was above 100 µM each time. Moreover, the TGI in the experiment on SNB-19 CNS was above 100 µM.
As to `C(=N\NC1=NCCCCN1)/c1ccc2ccccc2c1`, the TGI was 30.4 µM with MALME-3M melanoma; above 100 µM in the experiment on NCI-H23 lung; 40.4 µM in the experiment with SK-MEL-28 melanoma; 60.8 µM in the experiment on RXF 393 renal; above 100 µM in the experiment with SK-OV-3 ovarian; above 100 µM with HOP-62 NSCLC. The TGI in the experiment with COLO 205 colon was 31.5 µM; in the experiment with SNB-19 CNS it was above 100 µM.
Take `COC(=O)c1ccc(OCCn2nnc(C(=O)NN)c2C(=O)NN)cc1`: the TGI with MDA-N, in the experiment on MALME-3M melanoma, in the experiment with NCI-H23 lung, in the experiment on SK-MEL-28 melanoma, in the experiment with HOP-62 NSCLC and in the experiment on COLO 205 colon was above 100 µM each time. Also, the TGI with SNB-19 CNS was above 100 µM.
For the molecule `N=c1oc2cc(O)ccc2cc1C(=O)Nc1ccccn1`, the TGI is above 100 µM with MALME-3M melanoma; above 100 µM with NCI-H23 lung; above 100 µM with SK-MEL-28 melanoma; 99.7 µM with RXF 393 renal; above 100 µM with SK-OV-3 ovarian; above 100 µM with HOP-62 NSCLC. Besides, the TGI in the experiment with COLO 205 colon was 32.8 µM; with SNB-19 CNS, above 100 µM.
On to `Cc1cn(S(=O)(=O)c2ccccc2)c2c(OCc3ccccc3)cc([N+](=O)[O-])cc12`, for which the TGI in the experiment with MALME-3M melanoma, in the experiment with NCI-H23 lung, in the experiment with SK-MEL-28 melanoma, in the experiment with RXF 393 renal, in the experiment with SK-OV-3 ovarian and with COLO 205 colon was above 100 µM throughout. Moreover, in the experiment with SNB-19 CNS, the TGI was above 100 µM.
With `COc1cc(/C=C/C(=O)CC(=O)/C=C/c2cc(C)c(O)c(OC)c2)cc(C)c1O`, the TGI with MALME-3M melanoma, with NCI-H23 lung, with SK-MEL-28 melanoma, in the experiment on SK-OV-3 ovarian, in the experiment on HOP-62 NSCLC and in the experiment with COLO 205 colon was above 100 µM each time. The TGI in the experiment on SNB-19 CNS is above 100 µM.
Regarding `O=C1c2c(c3c4cc(F)ccc4oc3c3[nH]c4ccccc4c23)C(=O)N1O`, the GI50 in the experiment with MALME-3M melanoma is 1.37 µM; with NCI-H23 lung it was 1.65 µM; with SK-MEL-28 melanoma, 2.89 µM; in the experiment on RXF 393 renal it was 1.92 µM; in the experiment with SK-OV-3 ovarian, 2.48 µM; in the experiment on HOP-62 NSCLC, 1.33 µM. Also, the values for the GI50 in the experiment with COLO 205 colon and with SNB-19 CNS were 4.15 µM and 1.79 µM, respectively. Also, the TGI in the experiment on MALME-3M melanoma is 6.46 µM; in the experiment on NCI-H23 lung, 8.45 µM; in the experiment with SK-MEL-28 melanoma, above 100 µM; in the experiment on RXF 393 renal it was 6.85 µM; in the experiment with SK-OV-3 ovarian, 19.6 µM; in the experiment on HOP-62 NSCLC, 17.3 µM. Further, the TGI was above 100 µM with COLO 205 colon and 24.9 µM in the experiment with SNB-19 CNS.
On to `Nc1cc(C2CCCc3c2[nH]c2ccccc32)ccc1O` (centres undefined), for which the TGI with MALME-3M melanoma, with NCI-H23 lung, in the experiment on SK-MEL-28 melanoma, in the experiment on RXF 393 renal, in the experiment with SK-OV-3 ovarian and in the experiment on HOP-62 NSCLC was above 100 µM throughout. Further, the TGI in the experiment on COLO 205 colon and in the experiment on SNB-19 CNS was above 100 µM each time.
Take `CC(C)CC1c2[nH]c3ccccc3c2C[C@H]2C(=O)NC(Cc3c[nH]c4ccccc34)C(=O)N12` (some centres undefined): the TGI came to 28 µM in the experiment with MALME-3M melanoma; 40 µM with NCI-H23 lung; 40.5 µM in the experiment with SK-MEL-28 melanoma; 22.5 µM with RXF 393 renal; 49 µM with SK-OV-3 ovarian; 45.9 µM with HOP-62 NSCLC. Besides, the results for the TGI with COLO 205 colon and in the experiment with SNB-19 CNS were 34.8 µM and 43.6 µM, respectively.
